The results in this text go back to patent US20130289019A1, “METHODS OF TREATING BEHAVIORIAL AND/OR MENTAL DISORDERS” (AMAZING GRACE, INC., priority 2012, published 2013).

The test system of the experiment is rats (NAc infusion). In words: swim test scores during bilateral fluoxetine infusion in the NAc. The format is in vivo, rat.

Take `CNCCC(Oc1ccc(C(F)(F)F)cc1)c1ccccc1` (centres unmarked) [Fluoxetine]: the “Swimming + Climbing (total escape attempts), FLU” value (shortened to “Swimming + Climbing”) by setting is: (0.2 mM bilateral in NAc, fluoxetine on Day 2 (Ringer Day 3)) 54 ± 30; (0.2 mM bilateral in NAc, fluoxetine on Day 3 (Ringer Day 2)) 74 ± 13; (0.2 mM bilateral in NAc, on Day 2 or Day 3 (combined)) 66 ± 12; (0.5 mM bilateral in NAc, fluoxetine on Day 2 (Ringer Day 3)) 51 ± 9; (0.5 mM bilateral in NAc, fluoxetine on Day 3 (Ringer Day 2)) 81 ± 9; (0.75 mM bilateral in NAc, fluoxetine on Day 2 (Ringer Day 3)) 58 ± 11. Besides, the “Swimming + Climbing” value (0.75 mM bilateral in NAc, fluoxetine on Day 3 (Ringer Day 2)) amounted to 73 ± 11 and the “Swimming + Climbing” value (0.75 mM bilateral in NAc, on Day 2 or Day 3 (combined)) is recorded as 67 ± 7.
